## CN1CCN(c2cc3c(cc2F)c(=O)c(C(=O)O)cn3-c2ccc(F)cc2)CC1
In acetone, 293.15 K
  solubility (mole fraction): 0.0052
In acetone, 295.15 K
  solubility (mole fraction): 0.0058
In acetone, 298.15 K
  solubility (mole fraction): 0.0067
In acetone, 300.15 K
  solubility (mole fraction): 0.0073
In acetone, 303.15 K
  solubility (mole fraction): 0.0081
In acetone, 305.15 K
  solubility (mole fraction): 0.0087
In acetone, 308.15 K
  solubility (mole fraction): 0.0096
In acetone, 310.15 K
  solubility (mole fraction): 0.0104
In acetone, 313.15 K
  solubility (mole fraction): 0.011
In ethanol, 293.15 K
  solubility (mole fraction): 0.0387
In ethanol, 295.15 K
  solubility (mole fraction): 0.0435
In ethanol, 298.15 K
  solubility (mole fraction): 0.0507
In ethanol, 300.15 K
  solubility (mole fraction): 0.0559
In ethanol, 303.15 K
  solubility (mole fraction): 0.0636
In ethanol, 305.15 K
  solubility (mole fraction): 0.0683
In ethanol, 308.15 K
  solubility (mole fraction): 0.0754
In ethanol, 310.15 K
  solubility (mole fraction): 0.0795
In ethanol, 313.15 K
  solubility (mole fraction): 0.0856
In methanol, 293.15 K
  solubility (mole fraction): 0.0064
In methanol, 295.15 K
  solubility (mole fraction): 0.0068
In methanol, 298.15 K
  solubility (mole fraction): 0.0073
In methanol, 300.15 K
  solubility (mole fraction): 0.0077
In methanol, 303.15 K
  solubility (mole fraction): 0.0084
In methanol, 305.15 K
  solubility (mole fraction): 0.0088
In methanol, 308.15 K
  solubility (mole fraction): 0.0095
In methanol, 310.15 K
  solubility (mole fraction): 0.0099
In methanol, 313.15 K
  solubility (mole fraction): 0.0104
